In ChEMBL document CHEMBL2069270, “Exploration of ring size in a series of cyclic vicinal diamines with σ₁ receptor affinity” (Bioorg Med Chem Lett, 2012):

Key:
[1] = Selectivity ratio of Ki for rat sigma2 receptor to Ki for guinea pig sigma1 receptor
[2] = Displacement of [3H]DTG from sigma2 receptor in rat liver homogenate in presence of (+)-pentazocine; type: tissue-based
[3] = target: Sigma non-opioid intracellular receptor 1 (Cavia porcellus, UniProt Q60492); assay: Displacement of [3H](+)-pentazocine from sigma1 receptor in guinea pig brain homogenate; type: tissue-based
[4] = Binding affinity to sigma2 receptor in guinea pig brain homogenate; type: tissue-based, Cavia porcellus
[5] = target: Sigma non-opioid intracellular receptor 1 (Rattus norvegicus, UniProt Q9R0C9); assay: biochemical
Description: Displacement of [3H](+)-pentazocine from sigma1 receptor in rat brain homogenate after 120 mins

[6] = Binding affinity to sigma2 receptor; parameters: species or system Homo sapiens
[7] = Binding affinity to sigma1 receptor

Sequence of Sigma non-opioid intracellular receptor 1 (Cavia porcellus, UniProt Q60492) (Q60492 whole entry): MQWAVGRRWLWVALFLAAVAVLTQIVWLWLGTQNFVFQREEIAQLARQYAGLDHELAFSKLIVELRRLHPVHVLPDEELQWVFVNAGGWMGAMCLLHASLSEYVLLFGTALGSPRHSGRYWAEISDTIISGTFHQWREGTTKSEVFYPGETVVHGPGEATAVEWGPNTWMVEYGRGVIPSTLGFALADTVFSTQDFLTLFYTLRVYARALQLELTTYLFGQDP
Sequence of Sigma non-opioid intracellular receptor 1 (Rattus norvegicus, UniProt Q9R0C9) (Q9R0C9 whole entry): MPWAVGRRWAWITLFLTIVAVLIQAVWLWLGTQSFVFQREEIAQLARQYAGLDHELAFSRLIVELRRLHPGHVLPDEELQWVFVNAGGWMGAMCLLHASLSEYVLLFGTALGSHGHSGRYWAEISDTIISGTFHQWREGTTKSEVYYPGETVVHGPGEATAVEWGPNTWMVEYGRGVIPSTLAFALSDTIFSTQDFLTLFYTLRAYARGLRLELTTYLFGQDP

SMILES | Ratio Ki [1] | Ki [2] [nM] | Ki [3] [nM] | Ki [4] [nM] | Ki [5] [nM] | Ki [6] [nM] | Ki [7] [nM]
COc1ccc(CN2CCN(Cc3cc4ccccc4o3)CC2)cc1 | 929 | 167 | 0.18 |  |  |  | 
FCCCOc1ccc(CN2CCN(Cc3cc4ccccc4o3)CC2)cc1 | 842 | 1360 | 1.61 |  |  |  | 
FCCCOc1ccc(CN2CCN(Cc3cc4ccccc4o3)C2)cc1 | 175 | 3640 | 20.8 |  |  |  | 
CCOc1ccc(CN2CCN(Cc3cc4ccccc4o3)C2)cc1 | 123 | 2380 | 19.3 |  |  |  | 
COc1ccc(CCN2CCN(CCCc3ccccc3)CC2)cc1OC [[11C]SA4503] |  |  |  | 63 |  |  | 
FCCOc1ccc(CN2CCN(Cc3cc4ccccc4o3)CC2)cc1 | 16100 | 807 | 0.05 |  |  |  | 
CCOc1ccc(CN2CCCN(Cc3cc4ccccc4o3)CC2)cc1 | 1500 | 292 | 0.194 |  |  |  | 
S=c1sc2ccccc2n1CCCCN1CCN(C2CCCCC2)CC1 |  |  |  |  | 1.3 |  | 
COc1ccc(CN2CCN(Cc3cc4ccccc4o3)C2)cc1 | 58 | 2500 | 43 |  |  |  | 
CCCOc1ccc(CN2CCN(Cc3cc4ccccc4o3)CC2)cc1 | 143 | 1470 | 10.3 |  |  |  | 
COc1cccc2c1CCCC2CCCN1CCN(Cc2ccccc2)CC1 (stereo unspecified) |  |  |  |  |  | 1870 | 
COc1cccc(CCN2CCN(CCCc3ccccc3)CC2)c1 |  |  |  |  |  | 10.2 | 1.4
FCCCOc1ccc(CN2CCCN(Cc3cc4ccccc4o3)CC2)cc1 | 11500 | 1380 | 0.12 |  |  |  | 
CCOc1ccc(CN2CCN(Cc3cc4ccccc4o3)CC2)cc1 | 6190 | 1120 | 0.18 |  |  |  | 
CCCOc1ccc(CN2CCCN(Cc3cc4ccccc4o3)CC2)cc1 | 4600 | 700 | 0.152 |  |  |  | 
COc1ccc(CN2CCCN(Cc3cc4ccccc4o3)CC2)cc1 | 220 | 119 | 0.54 |  |  |  | 
FCCOc1ccc(CN2CCCN(Cc3cc4ccccc4o3)CC2)cc1 | 881 | 88.1 | 0.1 |  |  |  | 
c1ccc(CN2CCN(Cc3ccccc3)CC2)cc1 |  |  |  |  |  | 1270 | 
CCCOc1ccc(CN2CCN(Cc3cc4ccccc4o3)C2)cc1 | 121 | 6470 | 53.5 |  |  |  | 
FCCOc1ccc(CN2CCN(Cc3cc4ccccc4o3)C2)cc1 | 237 | 1530 | 6.45 |  |  |  | 
